Measurements reported in patent US20240251788A1, “HERBICIDE/SAFENER COMBINATION BASED ON SAFENERS FROM THE CLASS OF SUBSTITUTED [(1,5-DIPHENYL-1H-1,2,4-TRIAZOL-3-YL)OXY]ACETIC ACIDS AND THEIR SALTS” (Bayer Aktiengesellschaft, priority 2021, published 2024).

How the values were obtained:
[1] = tested on: summer wheat crop plant (TRZAS; cv. Triso); test: Reduction in herbicide damage to summer wheat by safener, greenhouse post-emergence application, visual scoring; format: in vivo
Description: (§1) The seeds of the crop plants to be treated are laid out in soil in woodfiber pots (diameter ˜ 7 cm), covered with soil and grown in a greenhouse under good conditions for germination and growth. The trial plants were treated at the early leaf stage (BBCH10-BBCH12).
The herbicides used (component B) were used in the following formulations: • B2.81: WP • B2.85: WP • B2.92: WP • Cinmethylin: EC • Clomazone: WP • Ethofumesate: WP • Flufenacet: SC • Pinoxaden: WP • Saflufenacil: WP • Bicyclopyrone: WP • Picloram: WP • Metazachlor: SC • Flumioxazin: WP • Glyphosate potassium salt: SL • Topramezone: WP
(§2) The dose of the respective herbicides was chosen here such that it causes an average degree of visually apparent damage (min. 20%, max. 75%) compared to untreated crop plants at the evaluation time on a control group of crop plants without safener treatment that were included in the same trial.
(§3) In the respective herbicide/safener combinations, the safeners (component A) in the form of wettable powders (WP) were added in the dose specified; in these cases, herbicide and safener are thus applied as a mixture.
(§4) Application was effected in each case on to the above-ground parts of the plant, at a water application rate corresponding to 300 l/ha and with addition of wetting agent (Mero, 1.5 l/h a).
In the applications that contained pinoxaden, bicyclopyrone or topramezone, the herbicidal effect was enhanced by additionally adding ammonium sulfate (2 kg/ha).
(§5) After application, the plants were cultivated under good growth conditions in a greenhouse. On account of the different mechanisms of action of the herbicides used, the damaging effect of the herbicides was fully manifested at different times depending on the herbicide, and this in turn forms the basis for assessment of the safener action in the mixtures. Therefore, the damage was scored visually, depending on the herbicide/mixture, between 11 and 21 days after application.
(§6) The damage effect was assessed visually on a scale of 0-100% by comparison with untreated control plants, and averaged over 2 repeats per treatment.

[2] = tested on: summer barley crop plant (HORVS: cv. Quench); test: Reduction in herbicide damage to summer barley by safener, greenhouse post-emergence application, visual scoring; format: in vivo
Description: as §1
The herbicides used (component B) were used in the following formulations: • B2.81: WP • B2.85: WP • B2.92: WP • Clomazone: WP • Ethofumesate: WP • Flufenacet: SC • Fluroxypyr: EC • Saflufenacil: WP • Thiencarbazone-methyl: WP • Iodosulfuron-methyl-sodium: WP • Bifenox: WP • Glyphosate potassium salt: SL • Topramezone: WP
as §2, §3, §4
In the applications that contained pinoxaden or topramezone, the herbicidal effect was enhanced by additionally adding ammonium sulfate (2 kg/ha).
as §5, §6

CC1(C)CON(Cc2ccccc2Cl)C1=O [Compound B5.14, clomazone, reference compound]
Damage to the plant by the herbicide (in %) ([1]; in vivo): 40% | Damage to the plant by the herbicide (in %) ([2]; in vivo): 40%

CCOC1Oc2ccc(OS(C)(=O)=O)cc2C1(C)C (stereo not drawn) [Compound B5.21, ethofumesate, reference compound]
Damage to the plant by the herbicide (in %) ([1]; summer wheat (TRZAS), herbicide dose 2000 g a.i./ha, without safener): 70% | Damage to the plant by the herbicide (in %) ([2]; summer barley (HORVS), herbicide dose 2000 g a.i./ha, without safener): 60%

O=C(O)CNCP(=O)(O)O [Compound B7.5, glyphosate, reference compound]
Damage to the plant by the herbicide (in %) ([1]; summer wheat (TRZAS), herbicide dose 400 g a.i./ha, without safener): 45% | Damage to the plant by the herbicide (in %) ([2]; summer barley (HORVS), herbicide dose 400 g a.i./ha, without safener): 60%

CC(C)N(C)S(=O)(=O)NC(=O)c1cc(-n2c(=O)cc(C(F)(F)F)n(C)c2=O)c(F)cc1Cl [Compound B9.10, saflufenacil, reference compound]
Damage to the plant by the herbicide (in %) ([1]; summer wheat (TRZAS), herbicide dose 10 g a.i./ha, without safener): 35% | Damage to the plant by the herbicide (in %) ([1]; summer wheat (TRZAS), herbicide dose 20 g a.i./ha, without safener): 40% | Damage to the plant by the herbicide (in %) ([2]; summer barley (HORVS), herbicide dose 20 g a.i./ha, without safener): 40%
